Laboratory results taken from patent US20140088052A1, “CHALCONE DERIVATIVES AS NRF2 ACTIVATORS” (THE JOHNS HOPKINS UNIVERSITY, priority 2011, published 2014).

The molecules below were run on Nrf2 (assay: Expression of Nrf2-regulated genes GCLM and NQO1 by qRT-PCR in Beas-2B cells (screen)). Conditions: Homo sapiens, BEAS-2B, 16 h, DMSO = 1.0 (Table 2), read-out: Relative Fold Change GCLM.
Format: cell-based, human
Description: To investigate the potency of the presently disclosed chalcone derivatives to activate Nrf2, the expression of antioxidant genes, GCLM and NADPH-NQO1, two well characterized transcriptional targets of Nrf2, were measured as surrogate markers. By “marker” is meant any protein or polynucleotide having an alteration in expression level or activity that is associated with a disease, disorder, or condition. It has been previously shown that oxidants or small molecule activators of Nrf2 increase GCLM and NQO1 in cells or tissues of wild-type, but not in Nrf2-deficient mice. Osburn, W. O., et al., Genetic or pharmacologic amplification of Nrf2 signaling inhibits acute inflammatory liver injury in mice. Toxicol. Sci. 2008, 104(1), 218-227. […]
RNA was isolated and gene expression was measured after 16 h.
Total RNA was extracted from cells/tissue using Qiagen RNeasy kit (Qiagen Corporation, Valencia, Calif.) and reverse transcription was performed by using random hexamers and MultiScribe reverse transcriptase according to the manufacturer's recommendations (Applied Biosystems, Foster City, Calif., USA). Quantitative real-time RT-PCR analyses of Nrf2, NQO1, HO1, and GCLM were performed by using Assay-on-Demand primers and probe sets from Applied Biosystems. Assays were performed using the ABI 7000 Taqman system (Applied Biosystems, Foster City, Calif.). β-actin was used for normalization.

| Structure (SMILES) | fold induction at 10 µM |
| --- | --- |
| O=C(/C=C/c1cccc(C(F)(F)F)c1)c1ccccc1 [Compound 3a, (E)-1-phenyl-3-(3-(trifluoromethyl)phenyl)prop-2-en-1-one] | 3.1 |
| COc1ccccc1C(=O)/C=C/c1cccc(C(F)(F)F)c1 [Compound 3b, (E)-1-(2-methoxyphenyl)-3-(3-(trifluoromethyl)phenyl)prop-2-en-1-one] | 3.9 |
| COc1ccc(C(=O)/C=C/c2cccc(C(F)(F)F)c2)cc1 [Compound 3d, (E)-1-(4-methoxyphenyl)-3-(3-(trifluoromethyl)phenyl)prop-2-en-1-one] | 2.7 |
| COc1ccc(C(=O)/C=C/c2cccc(C(F)(F)F)c2)c(OC)c1 [Compound 3e, (E)-1-(2,4-dimethoxyphenyl)-3-(3-(trifluoromethyl)phenyl)prop-2-en-1-one] | 4.6 |
| COc1cccc(OC)c1C(=O)/C=C/c1cccc(C(F)(F)F)c1 [Compound 3f, (E)-1-(2,6-dimethoxyphenyl)-3-(3-(trifluoromethyl)phenyl)prop-2-en-1-one] | 1.8 |
| COc1ccc(OC)c(C(=O)/C=C/c2cccc(C(F)(F)F)c2)c1 [Compound 3g, (E)-1-(2,5-dimethoxyphenyl)-3-(3-(trifluoromethyl)phenyl)prop-2-en-1-one] | 1.8 |
| COc1ccc(C(=O)/C=C/c2cccc(C(F)(F)F)c2)cc1OC [Compound 3h, (E)-1-(3,4-dimethoxyphenyl)-3-(3-(trifluoromethyl)phenyl)prop-2-en-1-one] | 4.1 |
| COc1cc(C(=O)/C=C/c2cccc(C(F)(F)F)c2)cc(OC)c1OC [Compound 3j, (E)-1-(3,4,5-trimethoxyphenyl)-3-(3-(trifluoromethyl)phenyl)prop-2-en-1-one] | 1.7 |
| COc1ccc(C(=O)/C=C/c2cccc(C(F)(F)F)c2)c(OC)c1OC [Compound 3k, (E)-1-(2,3,4-trimethoxyphenyl)-3-(3-(trifluoromethyl)phenyl)prop-2-en-1-one] | 3.6 |
| COc1cc(OC)c(C(=O)/C=C/c2cccc(C(F)(F)F)c2)c(OC)c1 [Compound 3l, (E)-1-(2,4,6-trimethoxyphenyl)-3-(3-(trifluoromethyl)phenyl)prop-2-en-1-one] | 1.4 |
| O=C(/C=C/c1ccc(C(F)(F)F)cc1)c1ccccc1 [Compound 4a, (E)-1-phenyl-3-(4-(trifluoromethyl)phenyl)prop-2-en-1-one] | 3.31 |
| COc1cccc(C(=O)/C=C/c2ccc(C(F)(F)F)cc2)c1 [Compound 4c, (E)-1-(3-methoxyphenyl)-4-(4-(trifluoromethyl)phenyl)prop-2-en-1-one] | 2.9 |
| COc1cccc(OC)c1C(=O)/C=C/c1ccc(C(F)(F)F)cc1 [Compound 4f, (E)-1-(2,6-dimethoxyphenyl)-3-(4-(trifluoromethyl)phenyl)prop-2-en-1-one] | 1.4 |
| COc1ccc(C(=O)/C=C/c2ccc(C(F)(F)F)cc2)cc1OC [Compound 4h] | 3.5 |
| COc1cc(C(=O)/C=C/c2ccc(C(F)(F)F)cc2)cc(OC)c1OC [Compound 4i] | 4.1 |
| COc1cc(OC)c(C(=O)/C=C/c2ccc(C(F)(F)F)cc2)c(OC)c1 [Compound 4k] | 2.4 |
| COc1ccc(OC)c(C(=O)/C=C/c2ccccc2[N+](=O)[O-])c1 [Compound 5g] | 1.7 |
| COc1ccc(C(=O)/C=C/c2ccccc2[N+](=O)[O-])c(OC)c1OC [Compound 5k, (E)-1-(2,3,4-trimethoxyphenyl)-3-(2-nitrophenyl)prop-2-en-1-one] | 2.9 |

Same assay, conditions: Homo sapiens, BEAS-2B, 16 h, DMSO = 1.0 (Table 2), read-out: Relative Fold Change NQO1

| Structure (SMILES) | fold induction at 10 µM |
| --- | --- |
| O=C(/C=C/c1cccc(C(F)(F)F)c1)c1ccccc1 [Compound 3a, (E)-1-phenyl-3-(3-(trifluoromethyl)phenyl)prop-2-en-1-one] | 2.8 |
| COc1ccccc1C(=O)/C=C/c1cccc(C(F)(F)F)c1 [Compound 3b, (E)-1-(2-methoxyphenyl)-3-(3-(trifluoromethyl)phenyl)prop-2-en-1-one] | 2.9 |
| COc1ccc(C(=O)/C=C/c2cccc(C(F)(F)F)c2)cc1 [Compound 3d, (E)-1-(4-methoxyphenyl)-3-(3-(trifluoromethyl)phenyl)prop-2-en-1-one] | 2.8 |
| COc1ccc(C(=O)/C=C/c2cccc(C(F)(F)F)c2)c(OC)c1 [Compound 3e, (E)-1-(2,4-dimethoxyphenyl)-3-(3-(trifluoromethyl)phenyl)prop-2-en-1-one] | 4 |
| COc1cccc(OC)c1C(=O)/C=C/c1cccc(C(F)(F)F)c1 [Compound 3f, (E)-1-(2,6-dimethoxyphenyl)-3-(3-(trifluoromethyl)phenyl)prop-2-en-1-one] | 0.6 |
| COc1ccc(OC)c(C(=O)/C=C/c2cccc(C(F)(F)F)c2)c1 [Compound 3g, (E)-1-(2,5-dimethoxyphenyl)-3-(3-(trifluoromethyl)phenyl)prop-2-en-1-one] | 0.8 |
| COc1ccc(C(=O)/C=C/c2cccc(C(F)(F)F)c2)cc1OC [Compound 3h, (E)-1-(3,4-dimethoxyphenyl)-3-(3-(trifluoromethyl)phenyl)prop-2-en-1-one] | 2.9 |
| COc1cc(C(=O)/C=C/c2cccc(C(F)(F)F)c2)cc(OC)c1OC [Compound 3j, (E)-1-(3,4,5-trimethoxyphenyl)-3-(3-(trifluoromethyl)phenyl)prop-2-en-1-one] | 0.8 |
| COc1ccc(C(=O)/C=C/c2cccc(C(F)(F)F)c2)c(OC)c1OC [Compound 3k, (E)-1-(2,3,4-trimethoxyphenyl)-3-(3-(trifluoromethyl)phenyl)prop-2-en-1-one] | 3.2 |
| COc1cc(OC)c(C(=O)/C=C/c2cccc(C(F)(F)F)c2)c(OC)c1 [Compound 3l, (E)-1-(2,4,6-trimethoxyphenyl)-3-(3-(trifluoromethyl)phenyl)prop-2-en-1-one] | 0.7 |
| O=C(/C=C/c1ccc(C(F)(F)F)cc1)c1ccccc1 [Compound 4a, (E)-1-phenyl-3-(4-(trifluoromethyl)phenyl)prop-2-en-1-one] | 2.9 |
| COc1cccc(C(=O)/C=C/c2ccc(C(F)(F)F)cc2)c1 [Compound 4c, (E)-1-(3-methoxyphenyl)-4-(4-(trifluoromethyl)phenyl)prop-2-en-1-one] | 3.1 |
| COc1cccc(OC)c1C(=O)/C=C/c1ccc(C(F)(F)F)cc1 [Compound 4f, (E)-1-(2,6-dimethoxyphenyl)-3-(4-(trifluoromethyl)phenyl)prop-2-en-1-one] | 0.6 |
| COc1ccc(C(=O)/C=C/c2ccc(C(F)(F)F)cc2)cc1OC [Compound 4h] | 2.7 |
| COc1cc(C(=O)/C=C/c2ccc(C(F)(F)F)cc2)cc(OC)c1OC [Compound 4i] | 3.7 |
| COc1cc(OC)c(C(=O)/C=C/c2ccc(C(F)(F)F)cc2)c(OC)c1 [Compound 4k] | 2.4 |
| COc1ccc(OC)c(C(=O)/C=C/c2ccccc2[N+](=O)[O-])c1 [Compound 5g] | 0.7 |
| COc1ccc(C(=O)/C=C/c2ccccc2[N+](=O)[O-])c(OC)c1OC [Compound 5k, (E)-1-(2,3,4-trimethoxyphenyl)-3-(2-nitrophenyl)prop-2-en-1-one] | 3.3 |
